Results as given in publication PMC7571124 (Molecules, 2020).
Where two headings read alike, the source gives them in different places. Residues, ends and D or L forms follow the SMILES beside them.

Key:
[1] = molecular target: neuraminidase of A/CHK/MX/1994 H5N2 (Influenza A virus, UniProt Q0A2F2); format: biochemical, Influenza A virus A/Chicken/Mexico/31381-7/1994 (H5N2)
[2] = test system: avian influenza A A/CHK/MX/1994 H5N2 virus; assay: microbe, parasite or virus in culture; format: cell-based; conditions: for IC50: read-out: IC50 of viral replication inhibition
[3] = molecular target: T1, neuraminidase of A/PR/8/34 H1N1 (Influenza A virus, UniProt P03468); assay: biochemical; format: biochemical, Influenza A virus A/Puerto Rico/8/34 (H1N1)
T1 construct: Samples of cell supernatant infected with whole virus were used as source of enzymes; host or cells: MDCK cells infected with the virus; clarified culture supernatant

in vitro = conditions: dog
MDCK cells = conditions: dog

Molecule | inhibition mechanism [1] | inhibition of viral replication (lytic plaques) ([2]; at 1 mM) | IC50 [3] [mM] | Ki [3] [mM] | inhibition mechanism [3] | other results
CCCN(CCC)S(=O)(=O)c1ccc(C(=O)O)cc1 [ORP, 4-(dipropylsulfamoyl) benzoic acid] | competitive | only lowered the number of plaques | 23 ± 1.2 | 10.5 | competitive | IC50 ([2]; Influenza A virus, H5N2, MDCK, in Canis lupus familiaris): 0.157 mM
O=C1O[C@H]([C@@H](O)CO)C(O)=C1O [CIV, ascorbic acid] | noncompetitive | – | 32 ± 1.5 | 26.4 | noncompetitive | inhibition of viral replication (lytic plaques) ([2]; at 1 μM): no inhibition effect was observed; CC50 (in vitro): 0.0003 mM; CC50 (MDCK cells): 0.00055 ± 0.0011 mM
3-(propylaminosulfonyl)-4-chlorobenzoic acid [STL] | – | completely inhibited | – | – | – | IC50 [1]: 24.8 ± 1.3 mM; inhibition of viral replication (lytic plaques) ([2]; at 100 μM): losing this effect
CSCCC(NC(=O)C(Cc1ccccc1)NC(C)=O)C(=O)O (stereo not drawn) [AAMOL, N-acetylphenylalanylmethionine] (Ac-Phe-Met-OH; configuration not given here) | competitive | – | 57 ± 1.1 | 15.3 | competitive | inhibition of viral replication (lytic plaques) ([2]; at 1 μM): no inhibition effect was observed; CC50 (in vitro): 0.016 ± 0.0015 mM
Cc1ccc(C)c(NC(=O)CC(C(=O)O)N2CCNCC2)c1 (stereo not shown) [FMOL, propanoic 3-[(2,5-dimethylphenyl)carbamoyl]-2-(piperazin-1-yl) acid] | – | affected the size and number of plaques | – | – | – | inhibition of viral replication (lytic plaques) ([2]; at 100 μM): affected the size and number of plaques
CC(=O)N[C@H]1[C@H]([C@H](O)[C@H](O)CO)O[C@@](Oc2ccc3c(C)cc(=O)oc3c2)(C(=O)O)C[C@@H]1O [MUNANA, 2′-O-(4-methylumbelliferyl)-α-dN-acetylneuraminic acid] | – | – | – | – | – | Km [1]: 106 µM; Vmax [1]: 5.2 µmol/min; Km [3]: 142 µM; Vmax [3]: 2.77 µmol/min
CC(=O)N[C@H]1[C@H]([C@H](O)[C@H](O)CO)OC(C(=O)O)=C[C@@H]1N=C(N)N [Zanamivir, zanamivir] | competitive | – | – | – | – | lytic plaque formation [2]: not detected; IC50 [2]: 0.000741 mM
